Reference: patent publication US8222008B2, “Methods and compositions for treating cancer” (The Administrators of The Tulane Educational Fund, priority 2003, dated 2012)
Marks after values point to notes of the source that are not given here.

Key:
Assay type in all cases: cell-based, human
[1] = tested on: cathepsin B in normal and nephropathic cystinotic fibroblasts; experiment: Cathepsin B localisation by immunohistochemistry; details: after TNF-a exposure; Lysotracker red and anti-cathepsin B staining
Protocol: Cells were stained by Lysotracker® Red stain (Molecular Probes) for 5 minutes at room temperature, washed twice in PBS, and then fixed in 4% formalin for 1 hour. Slides were immersed in blocking buffer (PBS, pH 7.2, 0.5% Carnation® dry milk, 0.1% Triton® X-100 reagent) for 20 minutes at room temperature, washed twice in PBS, and then incubated with primary antibody (anti-cathepsin B, Santa Cruz Biotechnologies) diluted 1:100 for 2 hours at room temperature, followed by incubation with secondary antibody (FITC-conjugated rabbit anti-goat, Santa Cruz Biotechnologies), at 4° C. overnight. Slides were washed twice with PBS and then sealed with cover slips and viewed using a Leica® DMRX deconvoluting microscope.
To substantiate that lysosomes are perneabilized by TNF-a (Guicciardi M, 2000J. Clin. Invest., 106:1127-1137) under these conditions, cathepsin B (a lysosomal cysteine protease) was localized by immunohistochemistry in normal and nephropathic cystinotic cells before and after induction of apoptosis. Fibroblasts were maintained under normal culture conditions, exposed to TNF-a, loaded with Lysotracker® red reagent, fixed, and stained for cathepsin B using an anti-cathepsin B antibody. Photographs were made via a deconvoluting microscope.
Lysosomes were identified with Lysotracker red dye. […]

[2] = tested on: GM00010 normal fibroblasts; experiment: Apoptosis by apoptotic triggers, TUNEL assay; details: TNF-a 30 ng/mL with actinomycin D 2.5 μg/mL for 16 hours
Protocol: (§1) Normal and cystinotic fibroblasts were purchased from the Coriell Mutant Cell Repository, and cultured in Coon modification of Ham F12 medium, supplemented with 10% fetal calf serum (FCS). Renal proximal tubule epithelial (RPTE; Biowhittaker Corp.) were cultured in renal epithelial basal medium supplemented with one Singlequots™ kit (Biowhittaker) per 500 mL to make renal epithelial growth media (REGM, Biowhittaker). Fibroblasts and RPTE were maintained in a 5% carbon dioxide, 95% air, humidified incubator at 37° C. (Thoene J. G. et al, 1976 J. Clin. Invest, 58:180-189).
(§2) Induction of apoptosis and assays for its detection were performed using commercially available reagents. Normal and cystinotic fibroblasts were matched for passage number (±3) and cell density, and then exposed to an apoptotic trigger. One apoptotic trigger used was TNF-a (30 ng/mL) with actinomycin D (2.5 μg/mL) for 16 hours. Another trigger was anti-Fas antibody (500 ng/mL) with actinomycin D (2.5 μg/mL) for 16 hours. A third trigger to induce apoptosis in the cells was Ultraviolet B light (60 mJ). See, e.g., previously described protocols of Aggarwal B B, 1992 Immunol. Ser., 56:61-78; Higuchi M. et al, 1995 J. Immunol. Meth., 178:173-181; Itoh N, et al, 1991 Cell, 66:233-243; Itoh N. et al, 1993 J. Biol. Chem., 268:10932-10937. Serum withdrawal was also used as a apoptotic stimulus (Lieberthal W, et al, 1998 Am. J. Physiol. 275:F691-F702; Verzola D. et al, 2001 Exp Nephrol., 9:366-371; Iglesias J. et al, 1999 Am. J. Physiol. 277:F711-F712; Kulkarni G V, et al, 1994 J. Cell Sci., 107:1169-1179), in which case the cells were incubated in F12 medium without serum for 24 hours and then analyzed for apoptosis.
(§3) 2. TUNEL Assay • The TUNEL assay employs terminal deoxynucleotidyl transferase (TdT) to label the ends of double stranded DNA breaks, which occur in apoptotic cells, with FITC-conjugated dUTP. Cells were fixed in 4% buffered formalin, washed, incubated in permeabilization solution (0.1% Triton X-100 in 0.1% Na Citrate) for 2 minutes on ice and then stained with 25 μL of TdT/45 μL of labeled dNTP mix for 40 minutes at 37° C. The cells were visually enumerated by fluorescence microscopy, scoring a minimum of five fields (250 to 300 cells) for fluorescence in triplicate followed by counting all cells in the same field by light microscopy, with a minimum of 750 cells scored per condition. The apoptosis rate is the total number of cells that fluoresce divided by the total cells in the field.
(§4) In another experiment, cells were treated with apoptosis inducers as indicated, stained with TUNEL reagent, and analyzed by florescence microscopy. A minimum of 250 cells were scored per conditions in triplicate. […] P>0.05 for ocular versus normal and intermediate; P=0.01 for ocular versus nephropathic.

[3] = tested on: GM05399 normal fibroblasts; experiment: Apoptosis by apoptotic triggers, TUNEL assay; details: TNF-a 30 ng/mL with actinomycin D 2.5 μg/mL for 16 hours
Protocol: as §1, §2, §3, §4

[4] = tested on: GM00760 nephropathic cystinotic fibroblasts; experiment: Apoptosis by apoptotic triggers, TUNEL assay; details: TNF-a 30 ng/mL with actinomycin D 2.5 μg/mL for 16 hours
Protocol: as §1, §2, §3, §4

[5] = tested on: GM08761 ocular cystinotic fibroblasts; experiment: Apoptosis by apoptotic triggers, TUNEL assay; details: TNF-a 30 ng/mL with actinomycin D 2.5 μg/mL for 16 hours
Protocol: as §1, §2, §3, §4

[6] = tested on: normal fibroblasts (AVG of 2); experiment: Apoptosis by apoptotic triggers, TUNEL assay; details: TNF-a 30 ng/mL with actinomycin D 2.5 μg/mL for 16 hours, AVG of 2 normal lines
Protocol: as §1, §2, §3, §4

[7] = tested on: nephropathic cystinotic fibroblasts (AVG of 3); experiment: Apoptosis by apoptotic triggers, TUNEL assay; details: TNF-a 30 ng/mL with actinomycin D 2.5 μg/mL for 16 hours, AVG of 3 nephropathic lines
Protocol: as §1, §2, §3, §4

[8] = tested on: GM00046 nephropathic cystinotic fibroblasts; experiment: Apoptosis by apoptotic triggers, TUNEL assay; details: TNF-a 30 ng/mL with actinomycin D 2.5 μg/mL for 16 hours
Protocol: as §1, §2, §3, §4

[9] = tested on: GM00379 intermediate cystinotic fibroblasts; experiment: Apoptosis by apoptotic triggers, TUNEL assay; details: TNF-a 30 ng/mL with actinomycin D 2.5 μg/mL for 16 hours
Protocol: as §1, §2, §3, §4

[10] = tested on: GM00008 nephropathic cystinotic fibroblasts; experiment: Apoptosis by apoptotic triggers, TUNEL assay; details: TNF-a 30 ng/mL with actinomycin D 2.5 μg/mL for 16 hours
Protocol: as §1, §2, §3, §4

[11] = tested on: GM00010 normal fibroblasts; experiment: Apoptosis by apoptotic triggers, CaspACE assay; details: TNF-a 30 ng/mL with actinomycin D 2.5 μg/mL for 16 hours
Protocol: as §1, §2
(§5) 1. The CaspACE Assay • CaspACE (Promega) is an FITC-conjugated cell-permeable form of the pan-caspase inhibitor zVAD-Fmk, which binds to activated caspase(s). Cells were incubated in FITC-VAD-Fmk-containing medium (10 μM for 30 minutes at 37° C.), washed, and then fixed in 10% buffered formalin (30 minutes at room temperature) before analysis. The cells were visually enumerated by fluorescence microscopy, scoring a minimum of five fields (250 to 300 cells) for fluorescence in triplicate followed by counting all cells in the same field by light microscopy, with a minimum of 750 cells scored per condition. The apoptosis rate is the total number of cells that fluoresce divided by the total cells in the field.
(§6) Apoptosis was induced in three nephropathic cystinotic, two normal, one intermediate cystinotic, and one ocular cystinotic fibroblast lines by three separate inducers. In one experiment, cells were treated with apoptosis inducers as indicated above. Apoptosis in these lines was assessed by CaspACE assay and analyzed by fluorescence microscopy. A minimum of 250 cells was scored per condition, in triplicate. Thus at least 750 cells were scored precondition. T-statistics: P<0.001 for average nephropathic versus average normal. P<0.05 for ocular versus nephropathic. P>0.05 for ocular versus normal, intermediate versus nephropathic, and intermediate versus normal.

[12] = tested on: GM05399 normal fibroblasts; experiment: Apoptosis by apoptotic triggers, CaspACE assay; details: TNF-a 30 ng/mL with actinomycin D 2.5 μg/mL for 16 hours
Protocol: as §1, §2, §5, §6

[13] = tested on: GM00760 nephropathic cystinotic fibroblasts; experiment: Apoptosis by apoptotic triggers, CaspACE assay; details: TNF-a 30 ng/mL with actinomycin D 2.5 μg/mL for 16 hours
Protocol: as §1, §2, §5, §6

[14] = tested on: GM08761 ocular cystinotic fibroblasts; experiment: Apoptosis by apoptotic triggers, CaspACE assay; details: TNF-a 30 ng/mL with actinomycin D 2.5 μg/mL for 16 hours
Protocol: as §1, §2, §5, §6

[15] = tested on: normal fibroblasts (AVG of 2); experiment: Apoptosis by apoptotic triggers, CaspACE assay; details: TNF-a 30 ng/mL with actinomycin D 2.5 μg/mL for 16 hours, AVG of 2 normal lines
Protocol: as §1, §2, §5, §6

[16] = tested on: nephropathic cystinotic fibroblasts (AVG of 3); experiment: Apoptosis by apoptotic triggers, CaspACE assay; details: TNF-a 30 ng/mL with actinomycin D 2.5 μg/mL for 16 hours, AVG of 3 nephropathic lines
Protocol: as §1, §2, §5, §6

[17] = tested on: GM00046 nephropathic cystinotic fibroblasts; experiment: Apoptosis by apoptotic triggers, CaspACE assay; details: TNF-a 30 ng/mL with actinomycin D 2.5 μg/mL for 16 hours
Protocol: as §1, §2, §5, §6

[18] = tested on: GM00379 intermediate cystinotic fibroblasts; experiment: Apoptosis by apoptotic triggers, CaspACE assay; details: TNF-a 30 ng/mL with actinomycin D 2.5 μg/mL for 16 hours
Protocol: as §1, §2, §5, §6

[19] = tested on: GM00008 nephropathic cystinotic fibroblasts; experiment: Apoptosis by apoptotic triggers, CaspACE assay; details: TNF-a 30 ng/mL with actinomycin D 2.5 μg/mL for 16 hours
Protocol: as §1, §2, §5, §6

T-47D (ER+) = experiment: Apoptosis in breast cancer cell lines, CaspACE assay with flow cytometry; details: Tamoxifen 100 μM, 16 hours
Text: (§7) The apoptotic effect of CDME was compared to that of tamoxifen using the CaspACE™ assay system (Promega) and conventional flow cytometry techniques.
(§8) All cell lines were obtained from the American Type Culture Collection, P.O. Box 1549, Manassas, Va., 20108 unless otherwise indicated. The cell lines studied were estrogen receptor-negative breast cancer cell lines MDA-MB-231 (ATCC Accession No. HTB-26) and MDA-MB-468 (ATCC Accession No. HTB-132) and estrogen receptor-positive breast cancer cell lines, MCF-7 (ATCC Accession No. HTB-22) and T-47D (ATCC Accession No. HTB-133).
(§9) All cell lines were grown on the bottom of 12-well flasks in Gibco RPMI-1640, until they reached the confluency of about 50%. After that, the medium was exchanged with DMEM (Sigma, D-5030), supplemented with 10% charcoal-treated FBS.
(§10) After four days (at confluency of about 75%), cells were treated by exposure to either CDME (500 μM) or tamoxifen (100 μM) or neither for 16 hours at 37° C. CaspACE™ assay analysis of the treated and control cells was performed as described in Example 2 and measured via flow cytometry. Note that the dosage of tamoxifen was a maximum positive control dose, higher than that normally administered for chemotherapy.

MDA-MB-468 (ER−) = experiment: as above; details: Tamoxifen 100 μM, 16 hours
Text: as §7, §8, §9, §10

MDA-MB-231 (ER−) = experiment: as above; details: Tamoxifen 100 μM, 16 hours
Text: as §7, §8, §9, §10

MCF-7 (ER+) = experiment: as above; details: Tamoxifen 100 μM, 16 hours
Text: as §7, §8, §9, §10

TNF-a
localisation of cathepsin B [1]: translocation of cathepsin B from a lysosomal location to a diffuse cytosolic location
% Apoptosis [2]: 12.8%
% Apoptosis [3]: 11.4%
% Apoptosis [4]: 19.3%
% Apoptosis [5]: 5.5%
% Apoptosis [6]: 12.1%
% Apoptosis [7]: 17.2%
% Apoptosis [8]: 15.3* %
% Apoptosis [9]: 8.2%
% Apoptosis [10]: 17.1%
% Apoptosis [11]: 9.2%
% Apoptosis [12]: 6.3%
% Apoptosis [13]: 13.5%
% Apoptosis [14]: 8.2%
% Apoptosis [15]: 7.8%
% Apoptosis [16]: 14.8%
% Apoptosis [17]: 16.1%
% Apoptosis [18]: 11.4%
% Apoptosis [19]: 14.9%

CC/C(=C(\c1ccccc1)c1ccc(OCCN(C)C)cc1)c1ccccc1 [Tamoxifen, tamoxifen, reference compound]
percent of apoptotic cells (±S.D.) (T-47D (ER+)): 99.91 ± 0.08%
percent of apoptotic cells (±S.D.) (MDA-MB-468 (ER−)): 90.37 ± 1.70%
percent of apoptotic cells (±S.D.) (MDA-MB-231 (ER−)): 98.92 ± 0.99%
percent of apoptotic cells (±S.D.) (MCF-7 (ER+)): 98.47 ± 0.53%
